# Laboratory results as given in ChEMBL document CHEMBL1201861, “Genomics of Drug Sensitity in Cancer screening data, Wellcome Trust Sanger Institute”.
# How the values were obtained:
# CPC-N = assay: cells; assay type: functional, cell-based; conditions: Homo sapiens;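 also: growth inhibition of CPC-N cells, with a cell viability assay as the readout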
# Description: SANGER: Inhibition of human CPC-N cell growth in a cell viability assay.
# DMS-153 = assay: cells; assay type: functional, cell-based; conditions: Homo sapiens
# Description: SANGER: Inhibition of human DMS-153 cell growth in a cell viability assay.
# Daudi = assay: cells; assay type: functional, cell-based; conditions: Homo sapiens;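 also: growth inhibition of Daudi cells, read out by a viability assay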
# Description: SANGER: Inhibition of human Daudi cell growth in a cell viability assay.
# EB2 = assay: cells; assay type: functional, cell-based; conditions: Homo sapiens;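 also: growth inhibition of EB2 cells, read out with a cell viability assay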
# Description: SANGER: Inhibition of human EB2 cell growth in a cell viability assay.
# ECC12 = assay: cells; assay type: functional, cell-based; conditions: Homo sapiens
# Description: SANGER: Inhibition of human ECC12 cell growth in a cell viability assay.
# EVSA-T = assay: cells; assay type: functional, cell-based, Homo sapiens; conditions: Homo sapiens, EVSA-T;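 also: growth inhibition of EVSA-T cells, read out with a cell viability assay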
# Description: SANGER: Inhibition of human EVSA-T cell growth in a cell viability assay.
# HCC1599 = assay: cells; assay type: functional, cell-based; conditions: Homo sapiens;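 also: growth inhibition of HCC1599 cells, read out in a cell viability assay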
# Description: SANGER: Inhibition of human HCC1599 cell growth in a cell viability assay.
# IMR-5 = assay: cells; assay type: functional, cell-based; conditions: Homo sapiens;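 also: growth inhibition of human IMR-5 cells, read out with a cell viability assay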
# Description: SANGER: Inhibition of human IMR-5 cell growth in a cell viability assay.
# JIYOYE = assay: cells; assay type: functional, cell-based; conditions: Homo sapiens
# Description: SANGER: Inhibition of human JiyoyeP-2003 cell growth in a cell viability assay.
# KARPAS-422 = assay: cells; assay type: functional, cell-based; conditions: Homo sapiens
# Description: SANGER: Inhibition of human KARPAS-422 cell growth in a cell viability assay.
# Kasumi 1 = assay: cells; assay type: functional, cell-based; conditions: Homo sapiens;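 also: growth inhibition of human Kasumi-1 cells, read out by a cell viability assay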
# Description: SANGER: Inhibition of human KASUMI-1 cell growth in a cell viability assay.
# KMS-12-PE = assay: cells; assay type: functional, cell-based; conditions: Homo sapiens;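 also: growth inhibition of human KMS-12-PE cells, measured with a cell viability assay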
# Description: SANGER: Inhibition of human KMS-12-PE cell growth in a cell viability assay.
# L-540 = assay: cells; assay type: functional, cell-based; conditions: Homo sapiens;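 also: growth inhibition of the human L-540 cell line, read out with a viability assay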
# Description: SANGER: Inhibition of human L-540 cell growth in a cell viability assay.
# LC-1F = assay: cells; assay type: functional, cell-based; conditions: Homo sapiens;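 also: growth inhibition of human LC-1F cells, read out with a cell viability assay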
# Description: SANGER: Inhibition of human LC-1F cell growth in a cell viability assay.
# LP-1 = assay: cells; assay type: functional, cell-based; conditions: Homo sapiens;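 also: growth inhibition of human LP-1 cells, with the read-out taken from a cell viability assay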
# Description: SANGER: Inhibition of human LP-1 cell growth in a cell viability assay.
# MRK-nu-1 = assay: cells; assay type: functional, cell-based; conditions: Homo sapiens;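 also: cell viability assay measuring growth suppression of human MRK-nu-1 cells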
# Description: SANGER: Inhibition of human MRK-nu-1 cell growth in a cell viability assay.
# NB1 = assay: cells; assay type: functional, cell-based; conditions: Homo sapiens;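 also: reduction of NB1 cell proliferation, read out with a viability assay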
# Description: SANGER: Inhibition of human NB1 cell growth in a cell viability assay.
# NCCIT = assay: SANGER: Inhibition of human NCCIT cell growth in a cell viability assay.; assay type: functional, cell-based
# NCI-H1417 = assay: cells; assay type: functional, cell-based; conditions: Homo sapiens;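 also: human NCI-H1417 cells, growth inhibition determined with a cell viability readout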
# Description: SANGER: Inhibition of human NCI-H1417 cell growth in a cell viability assay.
# NCI-H1436 = assay: cells; assay type: functional, cell-based; conditions: Homo sapiens;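 also: growth suppression of human NCI-H1436 cells, determined with a cell viability readout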
# Description: SANGER: Inhibition of human NCI-H1436 cell growth in a cell viability assay.
# NCI-H1522 = assay: cells; assay type: functional, cell-based; conditions: Homo sapiens;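 also: growth inhibition of NCI-H1522 cells, read out with a cell viability assay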
# Description: SANGER: Inhibition of human NCI-H1522 cell growth in a cell viability assay.
# NCI-H1694 = assay: cells; assay type: functional, cell-based; conditions: Homo sapiens;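 also: cell viability assay measuring inhibition of growth in human NCI-H1694 cells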
# Description: SANGER: Inhibition of human NCI-H1694 cell growth in a cell viability assay.
# NCI-H1882 = assay: cells; assay type: functional, cell-based; conditions: Homo sapiens;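 also: growth inhibition of the cell line, determined with a viability assay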
# Description: SANGER: Inhibition of human NCI-H1882 cell growth in a cell viability assay.
# NCI-H2081 = assay: cells; assay type: functional, cell-based; conditions: Homo sapiens;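 also: growth inhibition of human NCI-H2081 cells, read out with a cell viability assay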
# Description: SANGER: Inhibition of human NCI-H2081 cell growth in a cell viability assay.
# NCI-H2196 = assay: cells; assay type: functional, cell-based; conditions: Homo sapiens;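 also: cell viability assay used as the readout of growth inhibition in NCI-H2196 cells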
# Description: SANGER: Inhibition of human NCI-H2196 cell growth in a cell viability assay.
# NCI-H719 = assay: cells; assay type: functional, cell-based; conditions: Homo sapiens;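 also: growth inhibition of the cultured cell line, read out with a viability assay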
# Description: SANGER: Inhibition of human NCI-H719 cell growth in a cell viability assay.
# NCI-H748 = assay: cells; assay type: functional, cell-based; conditions: Homo sapiens;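 also: growth inhibition of NCI-H748 cells, measured by a cell viability assay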
# Description: SANGER: Inhibition of human NCI-H748 cell growth in a cell viability assay.
# PF-382 = assay: cells; assay type: functional, cell-based; conditions: Homo sapiens
# Description: SANGER: Inhibition of human PF-382 cell growth in a cell viability assay.
# RL95-2 = assay: cells; assay type: functional, cell-based; conditions: Homo sapiens;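 also: RL95-2 growth inhibition determined through a cell viability readout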
# Description: SANGER: Inhibition of human RL95-2 cell growth in a cell viability assay.
# RPMI-6666 = assay: cells; assay type: functional, cell-based; conditions: Homo sapiens
# Description: SANGER: Inhibition of human RPMI-6666 cell growth in a cell viability assay.
# RPMI 8402 = assay: SANGER: Inhibition of human RPMI-8402 cell growth in a cell viability assay.; assay type: functional, cell-based
# SCLC-21H = assay: cells; assay type: functional, cell-based; conditions: Homo sapiens;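 also: growth inhibition of cultured human SCLC-21H cells, read out with a cell viability assay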
# Description: SANGER: Inhibition of human SCLC-21H cell growth in a cell viability assay.
# SU-DHL-1 = assay: SANGER: Inhibition of human SU-DHL-1 cell growth in a cell viability assay.; assay type: functional, cell-based
# SUP-T1 = assay: cells; assay type: functional, cell-based; conditions: Homo sapiens;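 also: growth inhibition of human SUP-T1 cells, read out as cell viability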
# Description: SANGER: Inhibition of human SUP-T1 cell growth in a cell viability assay.
# TALL-1 = assay: cells; assay type: functional, cell-based; conditions: Homo sapiens;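 also: growth inhibition of cultured human TALL-1 cells, read out by a cell viability assay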
# Description: SANGER: Inhibition of human TALL-1 cell growth in a cell viability assay.
# ARH-77 = assay: cells; assay type: functional, cell-based; conditions: Homo sapiens;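 also: growth inhibition of ARH-77 cells, read out by a cell viability assay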
# Description: SANGER: Inhibition of human ARH-77 cell growth in a cell viability assay.
# BL-41 = assay: cells; assay type: functional, cell-based; conditions: Homo sapiens;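 also: growth inhibition of human BL-41 cells, read out with a cell viability assay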
# Description: SANGER: Inhibition of human BL-41 cell growth in a cell viability assay.
# BL-70 = assay: SANGER: Inhibition of human BL-70 cell growth in a cell viability assay.; assay type: functional, cell-based
# CA46 = assay: cells; assay type: functional, cell-based; conditions: Homo sapiens;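 also: growth inhibition of human CA46 cells, read out by a cell viability assay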
# Description: SANGER: Inhibition of human CA46 cell growth in a cell viability assay.
# TE-441-T = assay: cells; assay type: functional, cell-based; conditions: Homo sapiens
# Description: SANGER: Inhibition of human TE-441-T cell growth in a cell viability assay.
# UACC-812 = assay: cells; assay type: functional, cell-based; conditions: Homo sapiens
# Description: SANGER: Inhibition of human UACC-812 cell growth in a cell viability assay.
# CMK = assay: cells; assay type: functional, cell-based; conditions: Homo sapiens;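 also: growth inhibition of CMK cells, read out as cell viability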
# Description: SANGER: Inhibition of human CMK cell growth in a cell viability assay.
# EHEB = assay: cells; assay type: functional, cell-based; conditions: Homo sapiens;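 also: growth inhibition of human EHEB cells, read out with a cell viability assay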
# Description: SANGER: Inhibition of human EHEB cell growth in a cell viability assay.
compound,measurement,setting,value
C=C1C(=O)O[C@@H]2C3O[C@]3(C)CC/C=C(\C)CC[C@@H]12 (some centres not stated),IC50,CPC-N,> 5 µM
same,IC50,DMS-153,> 5 µM
same,IC50,Daudi,> 5 µM
same,IC50,EB2,> 5 µM
same,IC50,ECC12,> 5 µM
same,IC50,EVSA-T,> 5 µM
same,IC50,HCC1599,> 5 µM
same,IC50,IMR-5,> 5 µM
same,IC50,JIYOYE,> 5 µM
same,IC50,KARPAS-422,> 5 µM
same,IC50,Kasumi 1,> 5 µM
same,IC50,KMS-12-PE,> 5 µM
same,IC50,L-540,> 5 µM
same,IC50,LC-1F,> 5 µM
same,IC50,LP-1,> 5 µM
same,IC50,MRK-nu-1,2.01 µM
same,IC50,NB1,> 5 µM
same,IC50,NCCIT,> 5 µM
same,IC50,NCI-H1417,> 5 µM
same,IC50,NCI-H1436,> 5 µM
same,IC50,NCI-H1522,> 5 µM
same,IC50,NCI-H1694,> 5 µM
same,IC50,NCI-H1882,> 5 µM
same,IC50,NCI-H2081,> 5 µM
same,IC50,NCI-H2196,0.645 µM
same,IC50,NCI-H719,> 5 µM
same,IC50,NCI-H748,> 5 µM
same,IC50,PF-382,> 5 µM
same,IC50,RL95-2,> 5 µM
same,IC50,RPMI-6666,> 5 µM
same,IC50,RPMI 8402,> 5 µM
same,IC50,SCLC-21H,> 5 µM
same,IC50,SU-DHL-1,> 5 µM
same,IC50,SUP-T1,> 5 µM
same,IC50,TALL-1,> 5 µM
same,IC50,ARH-77,> 5 µM
same,IC50,BL-41,> 5 µM
same,IC50,BL-70,> 5 µM
same,IC50,CA46,> 5 µM
same,IC50,TE-441-T,> 5 µM
same,IC50,UACC-812,> 5 µM
same,IC50,CMK,> 5 µM
CC1=C2C[C@H]3[C@@H](CC=C4C[C@@H](O)CC[C@@]43C)[C@@H]2CC[C@]12O[C@@H]1C[C@H](C)CN[C@H]1[C@H]2C [CYCLOPAMINE],IC50,CPC-N,> 16 µM
same,IC50,DMS-153,> 16 µM
same,IC50,Daudi,> 16 µM
same,IC50,EB2,> 16 µM
same,IC50,ECC12,> 16 µM
same,IC50,EVSA-T,> 16 µM
same,IC50,HCC1599,> 16 µM
same,IC50,IMR-5,> 16 µM
same,IC50,JIYOYE,> 16 µM
same,IC50,KARPAS-422,> 16 µM
same,IC50,Kasumi 1,> 16 µM
same,IC50,KMS-12-PE,> 16 µM
same,IC50,L-540,> 16 µM
same,IC50,LC-1F,> 16 µM
same,IC50,LP-1,> 16 µM
same,IC50,MRK-nu-1,> 16 µM
same,IC50,NB1,> 16 µM
same,IC50,NCCIT,> 16 µM
same,IC50,NCI-H1417,> 16 µM
same,IC50,NCI-H1436,> 16 µM
same,IC50,NCI-H1522,> 16 µM
same,IC50,NCI-H1694,> 16 µM
same,IC50,NCI-H1882,> 16 µM
same,IC50,NCI-H2081,> 16 µM
same,IC50,NCI-H2196,> 16 µM
same,IC50,NCI-H719,> 16 µM
same,IC50,NCI-H748,> 16 µM
same,IC50,PF-382,> 16 µM
same,IC50,RL95-2,> 16 µM
same,IC50,RPMI-6666,> 16 µM
same,IC50,RPMI 8402,15.9 µM
same,IC50,SCLC-21H,> 16 µM
same,IC50,SU-DHL-1,> 16 µM
same,IC50,SUP-T1,> 16 µM
same,IC50,TALL-1,> 16 µM
same,IC50,ARH-77,> 16 µM
same,IC50,BL-41,> 16 µM
same,IC50,BL-70,> 16 µM
same,IC50,CA46,> 16 µM
same,IC50,TE-441-T,> 16 µM
same,IC50,UACC-812,> 16 µM
same,IC50,CMK,> 16 µM
CS(=O)(=O)CCNCc1ccc(-c2ccc3ncnc(Nc4ccc(OCc5cccc(F)c5)c(Cl)c4)c3c2)o1 [LAPATINIB],IC50,CPC-N,> 2 µM
same,IC50,DMS-153,> 2 µM
same,IC50,Daudi,> 2 µM
same,IC50,EB2,> 2 µM
same,IC50,ECC12,0.0923 µM
same,IC50,EHEB,> 2 µM
same,IC50,EVSA-T,> 2 µM
same,IC50,HCC1599,> 2 µM
same,IC50,IMR-5,> 2 µM
same,IC50,JIYOYE,> 2 µM
same,IC50,KARPAS-422,> 2 µM
same,IC50,Kasumi 1,> 2 µM
same,IC50,KMS-12-PE,> 2 µM
same,IC50,L-540,> 2 µM
same,IC50,LC-1F,1.38 µM
same,IC50,LP-1,> 2 µM
same,IC50,MRK-nu-1,> 2 µM
same,IC50,NB1,> 2 µM
same,IC50,NCCIT,> 2 µM
same,IC50,NCI-H1417,> 2 µM
same,IC50,NCI-H1436,> 2 µM
same,IC50,NCI-H1522,> 2 µM
same,IC50,NCI-H1694,> 2 µM
same,IC50,NCI-H1882,> 2 µM
same,IC50,NCI-H2081,> 2 µM
same,IC50,NCI-H2196,> 2 µM
same,IC50,NCI-H719,> 2 µM
same,IC50,NCI-H748,> 2 µM
same,IC50,PF-382,> 2 µM
same,IC50,RL95-2,> 2 µM
same,IC50,RPMI-6666,> 2 µM
same,IC50,RPMI 8402,> 2 µM
same,IC50,SCLC-21H,> 2 µM
same,IC50,SU-DHL-1,> 2 µM
same,IC50,SUP-T1,> 2 µM
same,IC50,TALL-1,> 2 µM
same,IC50,ARH-77,> 2 µM
same,IC50,BL-41,> 2 µM
same,IC50,BL-70,> 2 µM
same,IC50,CA46,> 2 µM
same,IC50,TE-441-T,> 2 µM
same,IC50,UACC-812,> 2 µM
same,IC50,CMK,> 2 µM
